Data taken from patent publication US20250325687A1, “CONJUGATE COMPRISING TOLL-LIKE RECEPTOR AGONIST” (MABSOFT THERAPEUTICS (SHANGHAI) CO., LTD., priority 2022, published 2025).
pEC50: −log10 of the molar value. Read-outs that look alike come from different tables or passages of the source.

Assays:
Format in all cases: cell-based
[1] = target: T1, hTLR8 (human Toll-like receptor 8) (Homo sapiens, UniProt Q9NR97); experiment: hTLR8 cell assay (HEK-Blue hTLR8 reporter cells); conditions: 24 hours, OD 650 nm
T1 construct: host or cells: HEK-Blue hTLR8 (HEK293-derived reporter cells)
T1 sequence (Q9NR97 27-1041): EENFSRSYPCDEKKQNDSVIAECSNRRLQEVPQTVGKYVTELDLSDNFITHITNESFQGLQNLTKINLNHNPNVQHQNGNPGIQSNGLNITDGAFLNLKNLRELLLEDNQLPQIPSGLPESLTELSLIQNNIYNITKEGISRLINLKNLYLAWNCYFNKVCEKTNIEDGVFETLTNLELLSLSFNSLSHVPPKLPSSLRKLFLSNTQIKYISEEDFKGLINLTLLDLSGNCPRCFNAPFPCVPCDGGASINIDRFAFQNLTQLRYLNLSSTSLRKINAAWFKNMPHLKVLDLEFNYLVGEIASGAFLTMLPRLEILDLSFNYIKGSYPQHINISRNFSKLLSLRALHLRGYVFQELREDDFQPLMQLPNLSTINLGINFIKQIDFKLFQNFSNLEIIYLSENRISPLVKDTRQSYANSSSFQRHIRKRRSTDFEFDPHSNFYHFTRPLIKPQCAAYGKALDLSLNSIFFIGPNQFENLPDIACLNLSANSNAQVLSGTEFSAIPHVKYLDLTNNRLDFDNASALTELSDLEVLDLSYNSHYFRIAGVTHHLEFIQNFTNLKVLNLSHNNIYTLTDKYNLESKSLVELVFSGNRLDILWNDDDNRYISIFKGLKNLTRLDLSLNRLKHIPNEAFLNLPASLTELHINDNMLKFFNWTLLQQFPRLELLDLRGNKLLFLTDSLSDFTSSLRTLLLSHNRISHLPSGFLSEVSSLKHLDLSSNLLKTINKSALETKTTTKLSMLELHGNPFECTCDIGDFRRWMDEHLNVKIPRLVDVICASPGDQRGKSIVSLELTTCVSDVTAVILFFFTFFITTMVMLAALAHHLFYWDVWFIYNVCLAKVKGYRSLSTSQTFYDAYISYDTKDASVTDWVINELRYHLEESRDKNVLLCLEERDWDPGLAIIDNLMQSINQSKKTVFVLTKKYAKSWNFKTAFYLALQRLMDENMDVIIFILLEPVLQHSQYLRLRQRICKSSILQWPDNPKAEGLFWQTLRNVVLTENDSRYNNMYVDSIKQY
Procedure: (§1) The payload compounds of Formula (II′) were assayed to evaluate their agonistic activity on hTLR7 (human Toll-like receptor 7) and hTLR8 (human Toll-like receptor 8). Reporter cells lines (HEK-Blue hTLR7 and HEK-Blue hTLR8) were obtained from InvivoGen. Cells were cryopreserved in liquid nitrogen per supplier's instruction. Upon test, the cells were thawed, passaged and cultured in the growth media of DMEM supplemented with 10% fetal bovine serum, 1×NEAA, 1 mM Pyruvate, 2 mM glutamine, […] in the presence of the following antibiotics, as shown as Table 1. Test compounds (at desired concentrations diluted) were added to the 96-well assay plate, 0.5 μL per well. Reporter cells were harvested from the tissue culture flasks by incubation in PBS at 37° C. for two minutes after the media in the flask is removed and cells rinsed with PBS. Cells were counted and diluted in the HEK-Blue Detection media at 50000 cells/mL and incubated for 24 hours at 37° C., in a 5% CO2 humidified incubator. Then 20 μL of cell supernatant were added to the assay plate containing the 180 µL of QUANTI-Blue, incubated for 1 hour at 37° C. Optical density at 650 nm was analyzed using an Envision (Perkin Elmer) plate reader.

[2] = target: T2, hTLR7 (human Toll-like receptor 7) (Homo sapiens, UniProt Q9NYK1); experiment: hTLR7 cell assay (HEK-Blue hTLR7 reporter cells); conditions: 24 hours, OD 650 nm
T2 construct: host or cells: HEK-Blue hTLR7 (HEK293-derived reporter cells)
T2 sequence (Q9NYK1 27-1049): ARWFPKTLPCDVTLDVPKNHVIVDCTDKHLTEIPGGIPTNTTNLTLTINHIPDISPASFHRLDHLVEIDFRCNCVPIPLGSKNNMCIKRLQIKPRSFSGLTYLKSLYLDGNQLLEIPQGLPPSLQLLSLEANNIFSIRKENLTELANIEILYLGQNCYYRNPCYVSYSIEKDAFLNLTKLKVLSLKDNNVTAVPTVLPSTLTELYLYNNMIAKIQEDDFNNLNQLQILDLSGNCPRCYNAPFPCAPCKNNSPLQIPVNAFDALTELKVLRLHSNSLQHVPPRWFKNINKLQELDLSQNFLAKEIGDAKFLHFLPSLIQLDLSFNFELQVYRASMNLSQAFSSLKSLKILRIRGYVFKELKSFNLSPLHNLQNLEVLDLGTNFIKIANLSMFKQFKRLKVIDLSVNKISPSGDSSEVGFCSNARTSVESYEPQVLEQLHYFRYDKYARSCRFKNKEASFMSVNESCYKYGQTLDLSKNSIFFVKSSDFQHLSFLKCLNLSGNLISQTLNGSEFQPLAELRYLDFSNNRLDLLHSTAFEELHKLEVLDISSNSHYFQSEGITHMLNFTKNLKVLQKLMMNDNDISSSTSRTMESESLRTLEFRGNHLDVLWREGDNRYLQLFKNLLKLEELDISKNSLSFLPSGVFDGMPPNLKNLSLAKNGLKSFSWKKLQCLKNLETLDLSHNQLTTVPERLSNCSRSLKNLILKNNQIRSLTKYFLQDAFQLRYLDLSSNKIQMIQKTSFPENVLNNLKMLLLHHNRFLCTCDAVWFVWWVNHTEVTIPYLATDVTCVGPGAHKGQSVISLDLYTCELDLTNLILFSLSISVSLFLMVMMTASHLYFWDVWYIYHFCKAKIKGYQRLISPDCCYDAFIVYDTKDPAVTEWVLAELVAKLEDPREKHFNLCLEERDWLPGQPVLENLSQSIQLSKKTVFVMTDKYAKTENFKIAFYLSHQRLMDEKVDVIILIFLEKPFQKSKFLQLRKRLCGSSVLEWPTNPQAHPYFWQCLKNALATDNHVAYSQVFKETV
Procedure: as §1

[3] = test system: human PBMC (human peripheral blood mononuclear cells); experiment: PBMC screening assay: induction of TNF-α production; conditions: read-out: EC50 (μM) TNF-α (hPBMC)
Procedure: The payload compounds of Formula (II′) were assayed to evaluate the induction of TNF-α production in human PBMC (human peripheral blood mononuclear cells).
Human peripheral blood mononuclear cells (PBMC) were obtained from Allcells. […] PBMC were incubated for 24 hours at 37° C. in a 5% CO2 humidified incubator. The following day PBMC plates were centrifuged at 500×g for 5 minutes and the growth media was removed. 200 μL of compound prepared in growth media at a series of diluted concentrations ranging from 2.54 nM to 50 μM were added to PBMC in duplicate and incubated for 24 hours at 37° C. in a 5% CO2 incubator. Prior to supernatant harvest, cells were spun at 500×g for 5 minutes to remove cell debris. TNF-α activity was assessed in the supernatant by ELISA (Elabscience) per the manufacturer's instructions. Optical density at 450 nm (ELISA) was analyzed using a plate reader.

[4] = human PBMC, 24 hours, TNF-α by ELISA, class symbols

| SMILES | pEC50 [1] | pEC50 [2] | EC50 [3, 4] | EC50 ([3]; Homo sapiens, PBMC, 24 h) |
| --- | --- | --- | --- | --- |
| CCOCc1nc2c(N)nc3cc(Cc4ccccc4)ccc3c2n1CC1(OCCN)CC1 [Compound 44] | > 5.30 | 5.00 to 6.00 |  | > 0.64 µM |
| CCOCc1nc2c(N)nc3cc(Cc4ccc(CCCN)cc4)ccc3c2n1CC(C)(C)O [Compound 3, 1-(4-amino-7-(4-(3-aminopropyl)benzyl)-2-(ethoxymethyl)-1H-imidazo[4,5-c]quinolin-1-yl)-2-methylpropan-2-ol] | 4.70 to 5.30 | 5.00 to 6.00 |  | > 0.64 µM |
| CC(C)(O)Cn1c(COCC(F)(F)F)nc2c(N)nc3cc(Cc4cccc(CN)c4)ccc3c21 [Compound 53, 1-(4-amino-7-(3-(aminomethyl)benzyl)-2-((2,2,2-trifluoroethoxy)methyl)-1H-imidazo[4,5-c]quinolin-1-yl)-2-methylpropan-2-ol] | > 5.30 | > 6.00 | < 0.64 µM |  |
| CCOCc1nc2c(N)nc3cc(Cc4cccc(CN)c4)ccc3c2n1CC(C)(C)O [Compound 4, 1-(4-amino-7-(3-(aminomethyl)benzyl)-2-(ethoxymethyl)-1H-imidazo[4,5-c]quinolin-1-yl)-2-methylpropan-2-ol] | > 5.30 | > 6.00 |  | > 0.64 µM |
| CCCCc1nc2c(N)nc3cc(Cc4cccc(CCCN)c4)ccc3c2n1CC(C)(C)O [Compound 18, 1-(4-amino-7-(3-(3-aminopropyl)benzyl)-2-butyl-1H-imidazo[4,5-c]quinolin-1-yl)-2-methylpropan-2-ol] | 4.70 to 5.30 | > 6.00 |  | > 0.64 µM |
| CCCCc1nc2c(N)nc3cc(Cc4ccc5c(c4)C(N)CCC5)ccc3c2n1CC(C)(C)O (stereo not shown) [Compound 57, 1-(4-amino-7-((8-amino-5,6,7,8-tetrahydronaphthalen-2-yl)methyl)-2-butyl-1H-imidazo[4,5-c]quinolin-1-yl)-2-methylpropan-2-ol] | > 5.30 | > 6.00 |  | < 0.64 µM |
| CCOCc1nc2c(N)nc3cc(Cc4ccccc4)ccc3c2n1CC(C)(C)O [Compound 171, 1-(4-amino-7-benzyl-2-(ethoxymethyl)-1H-imidazo[4,5-c]quinolin-1-yl)-2-methylpropan-2-ol] |  |  | < 0.64 µM |  |

Second part, led by results:

| pEC50 [1] | pEC50 [2] | SMILES | EC50 [3, 4] | EC50 ([3]; Homo sapiens, PBMC, 24 h) |
| --- | --- | --- | --- | --- |
| > 5.30 | 5.00 to 6.00 | CCCCc1nc2c(N)nc3cc(Cc4ccccc4CN)ccc3c2n1CC(C)(C)O [Compound 71, 1-(4-amino-7-(2-(aminomethyl)benzyl)-2-butyl-1H-imidazo[4,5-c]quinolin-1-yl)-2-methylpropan-2-ol] | > 0.64 µM |  |
| > 5.30 | > 6.00 | CCCCc1nc2c(N)nc3cc(Cc4cc(CN)ccc4F)ccc3c2n1CC(C)(C)O [Compound 67, 1-(4-amino-7-(5-(aminomethyl)-2-fluorobenzyl)-2-butyl-1H-imidazo[4,5-c]quinolin-1-yl)-2-methylpropan-2-ol] | < 0.64 µM |  |
| > 5.30 | > 6.00 | CCCCc1nc2c(N)nc3cc(Cc4cccc(CNC)c4)ccc3c2n1CC(C)(C)O [Compound 20, 1-(4-amino-2-butyl-7-(3-((methylamino)methyl)benzyl)-1H-imidazo[4,5-c]quinolin-1-yl)-2-methylpropan-2-ol] | < 0.64 µM |  |
| > 5.30 | > 6.00 | CCCCc1nc2c(N)nc3cc(C(C)c4cccc(CN)c4)ccc3c2n1CC(C)(C)O (stereo not shown) [Compound 56, 1-(4-amino-7-(1-(3-(aminomethyl)phenyl)ethyl)-2-butyl-1H-imidazo[4,5-c]quinolin-1-yl)-2-methylpropan-2-ol] | < 0.64 µM |  |
| > 5.30 | 5.00 to 6.00 | CCOCc1nc2c(N)nc3cc(Cc4cccc(C(=O)NCCN)c4)ccc3c2n1CC(C)(C)O [Compound 151, 3-((4-amino-2-(ethoxymethyl)-1-(2-hydroxy-2-methylpropyl)-1H-imidazo[4,5-c]quinolin-7-yl)methyl)-N-(2-aminoethyl)benzamide] | < 0.64 µM |  |
| > 5.30 | > 6.00 | CCCCc1nc2c(N)nc3cc(Cc4ccc5c(c4)CNCC5)ccc3c2n1CC(C)(C)O [Compound 60, 1-(4-amino-2-butyl-7-((1,2,3,4-tetrahydroisoquinolin-7-yl)methyl)-1H-imidazo[4,5-c]quinolin-1-yl)-2-methylpropan-2-ol] | < 0.64 µM |  |
| > 5.30 | > 6.00 | CCOCc1nc2c(N)nc3cc(Cc4ccc(F)c(CN)c4)ccc3c2n1CC(C)(C)O [Compound 149] | < 0.64 µM |  |
| > 5.30 | > 6.00 | CCCCc1nc2c(N)nc3cc(Cc4cccc(CCN)c4)ccc3c2n1CC(C)(C)O [Compound 17, 1-(4-amino-7-(3-(2-aminoethyl)benzyl)-2-butyl-1H-imidazo[4,5-c]quinolin-1-yl)-2-methylpropan-2-ol] | > 0.64 µM |  |
| > 5.30 | > 6.00 | CCCCc1nc2c(N)nc3cc(Cc4ccc5c(c4)C(N)CC5)ccc3c2n1CC(C)(C)O (stereo not shown) [Compound 61, 1-(4-amino-7-((3-amino-2,3-dihydro-1H-inden-5-yl)methyl)-2-butyl-1H-imidazo[4,5-c]quinolin-1-yl)-2-methylpropan-2-ol] | < 0.64 µM |  |
